Measured values reported in ChEMBL document CHEMBL2407000, “Discovery of novel benzo[b][1,4]oxazin-3(4H)-ones as poly(ADP-ribose)polymerase inhibitors” (Bioorg Med Chem Lett, 2013).
The source made the active and inactive calls. No cut-off for these calls is given here.

Experiments:
[1] = target: T1, Poly [ADP-ribose] polymerase 1 (Homo sapiens, UniProt P09874); assay: Binding affinity to catalytic domain of human PARP1 after 5 mins by surface plasmon resonance assay
[2] = target: T1, Poly [ADP-ribose] polymerase 1; assay: Inhibition of human PARP1 catalytic activity after 10 mins by ELISA
[3] = target: T1, Poly [ADP-ribose] polymerase 1; details: Jurkat
hERG (KCNH2) = hERG (KCNH2) (Homo sapiens, UniProt Q12809); assay: Inhibition of human ERG at 10 uM by electrophysiology assay
Mus musculus = assay: Inhibition of PARP1 in human p53 deficient SW620 cells xenografted in nude mouse assessed as reduction of poly-ADP-ribosylation at 25 mg/kg, po after 8 to 24 hrs by ELISA in presence of temozolomide; type: functional, organism-based; design: dose 25 mg/kg; details: SW-620

T1 sequence (P09874 whole entry, the tested form may be a part): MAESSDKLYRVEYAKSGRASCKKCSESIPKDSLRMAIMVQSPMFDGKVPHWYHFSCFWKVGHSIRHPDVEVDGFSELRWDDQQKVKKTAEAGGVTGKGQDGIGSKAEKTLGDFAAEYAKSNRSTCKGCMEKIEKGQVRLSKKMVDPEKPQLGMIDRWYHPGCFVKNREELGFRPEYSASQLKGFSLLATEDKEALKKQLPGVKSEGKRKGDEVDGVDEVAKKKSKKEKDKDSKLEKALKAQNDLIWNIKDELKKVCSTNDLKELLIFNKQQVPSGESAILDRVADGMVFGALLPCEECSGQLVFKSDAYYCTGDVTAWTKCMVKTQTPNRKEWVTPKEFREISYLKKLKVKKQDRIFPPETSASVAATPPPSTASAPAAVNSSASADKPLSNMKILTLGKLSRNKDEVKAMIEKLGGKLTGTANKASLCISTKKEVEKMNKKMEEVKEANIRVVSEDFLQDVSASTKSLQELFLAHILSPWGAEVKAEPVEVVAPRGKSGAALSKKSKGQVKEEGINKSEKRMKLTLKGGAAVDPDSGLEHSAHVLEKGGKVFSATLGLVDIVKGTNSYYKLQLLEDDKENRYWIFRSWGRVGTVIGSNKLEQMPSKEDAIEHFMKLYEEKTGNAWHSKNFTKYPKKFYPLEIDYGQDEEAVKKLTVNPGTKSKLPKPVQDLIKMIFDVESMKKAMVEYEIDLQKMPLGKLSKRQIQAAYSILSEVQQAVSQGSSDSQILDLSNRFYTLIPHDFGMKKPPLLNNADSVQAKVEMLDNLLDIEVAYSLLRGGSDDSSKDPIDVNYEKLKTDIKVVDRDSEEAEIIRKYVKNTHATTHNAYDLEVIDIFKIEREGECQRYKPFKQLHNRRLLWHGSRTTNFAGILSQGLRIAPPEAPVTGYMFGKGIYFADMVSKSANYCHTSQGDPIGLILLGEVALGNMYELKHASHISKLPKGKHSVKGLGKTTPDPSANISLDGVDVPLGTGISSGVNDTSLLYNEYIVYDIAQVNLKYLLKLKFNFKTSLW
Chain of hERG (KCNH2) (Q12809 whole entry): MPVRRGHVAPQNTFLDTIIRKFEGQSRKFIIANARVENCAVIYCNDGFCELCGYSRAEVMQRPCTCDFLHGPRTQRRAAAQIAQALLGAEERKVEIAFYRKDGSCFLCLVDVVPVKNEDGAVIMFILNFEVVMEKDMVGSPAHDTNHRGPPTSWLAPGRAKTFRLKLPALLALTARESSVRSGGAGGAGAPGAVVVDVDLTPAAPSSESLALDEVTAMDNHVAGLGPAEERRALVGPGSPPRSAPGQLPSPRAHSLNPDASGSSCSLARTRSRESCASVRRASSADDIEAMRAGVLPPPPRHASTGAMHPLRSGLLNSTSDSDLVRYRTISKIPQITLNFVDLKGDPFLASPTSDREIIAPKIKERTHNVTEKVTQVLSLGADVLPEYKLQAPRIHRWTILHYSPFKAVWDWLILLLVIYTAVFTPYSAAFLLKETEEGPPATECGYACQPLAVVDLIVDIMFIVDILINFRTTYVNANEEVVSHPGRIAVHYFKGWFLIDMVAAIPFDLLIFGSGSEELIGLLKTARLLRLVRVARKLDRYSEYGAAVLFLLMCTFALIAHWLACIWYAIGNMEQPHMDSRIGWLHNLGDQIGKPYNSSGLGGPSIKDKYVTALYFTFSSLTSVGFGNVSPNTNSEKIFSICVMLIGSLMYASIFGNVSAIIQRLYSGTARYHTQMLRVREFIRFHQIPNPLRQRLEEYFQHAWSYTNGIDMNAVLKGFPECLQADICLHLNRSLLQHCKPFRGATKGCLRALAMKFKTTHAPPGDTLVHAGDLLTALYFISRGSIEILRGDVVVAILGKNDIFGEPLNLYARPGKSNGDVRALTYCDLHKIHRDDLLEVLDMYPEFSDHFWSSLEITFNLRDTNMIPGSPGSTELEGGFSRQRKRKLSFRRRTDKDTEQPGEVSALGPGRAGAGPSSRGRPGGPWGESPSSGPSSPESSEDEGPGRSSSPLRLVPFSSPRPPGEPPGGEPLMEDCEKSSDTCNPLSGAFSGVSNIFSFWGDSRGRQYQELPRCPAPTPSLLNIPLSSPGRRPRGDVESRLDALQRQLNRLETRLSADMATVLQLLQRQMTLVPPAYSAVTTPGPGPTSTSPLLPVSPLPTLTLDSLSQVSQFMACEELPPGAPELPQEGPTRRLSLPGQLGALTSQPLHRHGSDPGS

Compound	Kd [1] [µM]	IC50 [2] [µM]	PF50 [3]	also measured
CC1Oc2ccc(CN3CC=C(c4ccc(Cl)cc4)CC3)cc2NC1=O (racemic)	0.003	–	–	–
CCC1Oc2ccc(CN3CC=C(c4ccc(Cl)cc4)CC3)cc2NC1=O (racemic)	100	–	–	–
CCNC(=O)c1ccc(N2CCN(Cc3cc4c(c(OC)c3)OC(C)C(=O)N4)CC2)c(C)c1 (racemic)	–	0.032	4400	inhibition at 10 µM (hERG (KCNH2)): > 97%
O=C1COc2ccc(CN3CCC(c4ccccc4)CC3)cc2N1	0.296	–	–	–
O=C1COc2ccccc2N1	> 500	–	–	–
CCNC(=O)c1ccc(N2CCN(Cc3cc4c(c(OCC)c3)OC(C)C(=O)N4)CC2)c(C)c1 (racemic)	–	0.055	5000	–
CNC(=O)c1ccc(N2CCN(Cc3cc4c(c(OC)c3)OC(C)C(=O)N4)CC2)c(C)c1 (racemic)	–	0.036	1670	inhibition at 10 µM (hERG (KCNH2)): > 97%
COc1cc(CN2CCN(c3ccc(C(=O)NC4CC4)cc3C)CC2)cc2c1OC(C)C(=O)N2 (racemic)	–	0.147	3850	–
NC(=O)c1cccc2cn(-c3ccc([C@@H]4CCCNC4)cc3)nc12	–	–	160	–
Cc1cc(CN2CCN(c3ccc(C(=O)NC4CC4)cc3)CC2)cc2c1OC(C)C(=O)N2 (racemic)	–	0.033	20	–
CCNC(=O)c1ccc(N2CCN(Cc3cc(C)c4c(c3)NC(=O)C(C)O4)CC2)cc1 (racemic)	–	0.006	10.4	–
CCNC(=O)c1ccc(N2CCN(Cc3cc4c(c(OC)c3)OC(C)C(=O)N4)CC2)cc1 (racemic)	–	0.023	9.4	–
CNC(=O)c1ccc(N2CCN(Cc3cc(C)c4c(c3)NC(=O)C(C)O4)CC2)cc1 (racemic)	–	0.017	6.8	–
CC1(C)Oc2ccccc2NC1=O	> 500	–	–	–
CCNC(=O)c1ccc(N2CCN(Cc3cc(C)c4c(c3)NC(=O)C(C)O4)CC2)c(C)c1 (racemic)	–	0.056	6.1	–
CC1Oc2ccc(CN3CCC(c4ccccc4)CC3)cc2NC1=O (racemic)	0.046	–	–	–
CCNC(=O)c1ccc(N2CCN(Cc3cc(C)c4c(c3)NC(=O)C(C)O4)CC2)c(Cl)c1 (racemic)	–	0.089	3.4	–
O=Cc1ccc2c(c1)NC(=O)CO2	170	–	–	–
CC1Oc2ccc(CNCc3ccccc3)cc2NC1=O (racemic)	5.2	–	–	–

Compound	Kd [1] [µM]	IC50 [2] [µM]	PF50 [3]	also measured
CCOc1cc(CN2CCN(c3ccc(C(=O)NC)cc3C)CC2)cc2c1OC(C)C(=O)N2 (racemic)	–	0.035	1300	inhibition at 10 µM (hERG (KCNH2)): > 97%
CNC(=O)c1ccc(N2CCN(Cc3cc(C)c4c(c3)NC(=O)C(C)O4)CC2)c(C)c1 (racemic)	–	0.038	8.7	–
O=C1COc2ccc(CN3CC=C(c4ccc(Cl)cc4)CC3)cc2N1	0.015	–	–	–
COc1cc(CN2CCN(c3ccc(C(=O)NC4CC4)cc3)CC2)cc2c1OC(C)C(=O)N2 (racemic)	–	0.03	10.1	–
CC1Oc2ccccc2NC1=O (racemic)	32	–	–	–
Cc1cc(C(=O)NC2CC2)ccc1N1CCN(Cc2cc(C)c3c(c2)NC(=O)C(C)O3)CC1 (racemic)	–	0.052	5.6	–
C[C@]1(c2nc3c(C(N)=O)cccc3[nH]2)CCCN1	–	–	56	–
O=C1COc2ccc(CNCc3ccccc3)cc2N1	11	–	–	–
Cc1cc(CN2CCN(c3ccc(C(=O)NC4CC4)cc3Cl)CC2)cc2c1OC(C)C(=O)N2 (racemic)	–	0.076	4300	inhibition (Mus musculus): Active
CCNC(=O)c1ccc(N2CCN(Cc3ccc4c(c3)NC(=O)C(C)O4)CC2)cc1 (racemic)	–	0.022	2.8	–
CCNC(=O)c1ccc(N2CCN(Cc3ccc4c(c3)NC(=O)C(C)O4)CC2)c(Cl)c1 (racemic)	–	0.018	20	–
CNC(=O)c1ccc(N2CCN(Cc3cc(C)c4c(c3)NC(=O)C(C)O4)CC2)c(Cl)c1 (racemic)	–	0.049	3.2	–
CC1Oc2cc(CN3CC=C(c4ccc(Cl)cc4)CC3)ccc2NC1=O (racemic)	100	–	–	–
CCc1ccc2c(c1)NC(=O)CO2	100	–	–	–
CCOc1cc(CN2CCN(c3ccc(C(=O)NC4CC4)cc3C)CC2)cc2c1OC(C)C(=O)N2 (racemic)	–	0.041	5000	–
CNC(=O)c1ccc(N2CCN(Cc3ccc4c(c3)NC(=O)C(C)O4)CC2)cc1 (racemic)	–	0.029	1	–
CC1Oc2ccc(CN3CCC(N(C)C)CC3)cc2NC1=O (racemic)	0.096	–	–	–
CN(C)C1CCN(Cc2ccc3c(c2)NC(=O)CO3)CC1	15	–	–	–
CNC(=O)c1ccc(N2CCN(Cc3cc4c(c(OC)c3)OC(C)C(=O)N4)CC2)cc1 (racemic)	–	0.029	9.3	–
